The target of data set [1] is T1, Tyrosinase (Homo sapiens, UniProt P14679).
T1 sequence (P14679 whole entry): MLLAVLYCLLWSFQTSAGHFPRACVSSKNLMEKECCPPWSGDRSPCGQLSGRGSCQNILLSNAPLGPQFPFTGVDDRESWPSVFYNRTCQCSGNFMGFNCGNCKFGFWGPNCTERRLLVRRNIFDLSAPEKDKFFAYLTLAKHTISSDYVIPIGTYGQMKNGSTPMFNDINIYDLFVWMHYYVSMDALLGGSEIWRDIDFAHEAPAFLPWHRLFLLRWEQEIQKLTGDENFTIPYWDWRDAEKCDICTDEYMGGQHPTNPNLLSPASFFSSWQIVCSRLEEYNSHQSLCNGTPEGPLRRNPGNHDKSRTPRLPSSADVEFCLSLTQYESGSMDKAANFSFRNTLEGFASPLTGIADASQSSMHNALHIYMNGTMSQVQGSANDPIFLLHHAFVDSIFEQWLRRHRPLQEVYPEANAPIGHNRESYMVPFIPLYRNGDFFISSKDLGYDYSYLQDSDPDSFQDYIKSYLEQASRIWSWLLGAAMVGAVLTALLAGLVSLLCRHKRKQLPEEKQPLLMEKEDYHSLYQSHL

A further data set has as its target Mushroom tyrosinase (Agaricus bisporus, UniProt O42713+Q00024+C7FF04+C7FF05).
Data set [2] addresses T1, Tyrosinase. This is another data set of the same source.
The subject of a further data set is MNT-1. Put plainly: cells. The settings on record: Homo sapiens, MNT-1, 96 h.
A short description of a further data set: in vitro. The settings on record: human, MNT-1 cells.
Data set [3] addresses T1, Tyrosinase. As to the kind of experiment: Inhibition of human tyrosinase.
Compound in data set [4]: O=C1/C(=C/c2ccc(O)cc2O)Cc2c(O)cccc21
The format is cell-based. To be noted: Homo sapiens; HEK293T; dose 0-8 µM, time 1.0 hrs.

Compound in data set [5]: O=C1/C(=C/c2ccc(O)cc2O)Oc2c(O)cccc21
It is filed as cell-based. To be noted: Homo sapiens; HEK293T; dose 0-8 µM, time 1.0 hrs.

Compound in data set [6]: O=C1/C(=C/c2ccc(O)cc2O)Cc2c(O)cccc21
The format is cell-based. To be noted: Homo sapiens; HEK293T; dose 0-8 µM, time 1.0 hrs. This is another data set of the same source.

Compound in data set [7]: O=C1/C(=C/c2ccc(O)cc2O)Oc2c(O)cccc21
The format is cell-based. The settings on record: Homo sapiens; HEK293T; dose 0-8 µM, time 1.0 hrs. The source holds these as a separate data set.

Compound in data set [8]: O=C1/C(=C/c2ccc(O)cc2O)Cc2c(O)cccc21
It is filed as cell-based. To be noted: Homo sapiens; HEK293T; dose 0-8 µM, time 1.0 hrs. The source holds these as a separate data set.

Compound in data set [9]: O=C1/C(=C/c2ccc(O)cc2O)Oc2c(O)cccc21
The format is cell-based. The settings on record: Homo sapiens; HEK293T; dose 0-8 µM, time 1.0 hrs. This is another data set of the same source.

Description for MNT-1: Inhibition of melanogenesis in human MNT-1 cells incubated for 96 hrs
Description for in vitro: Cytotoxicity against human MNT-1 cells

As usually defined, the IC50 is the midpoint of a concentration-inhibition curve. Lower therefore signals greater potency in that assay. As to `O=C1/C(=C/c2ccc(O)cc2O)Cc2ccccc21`, 5.8 µM corresponded to half-maximal inhibition at Tyrosinase [1] (IC50).

In turn, `COc1cc(O)ccc1/C=C1\Oc2cc(O)ccc2C1=O` returned an IC50 on Tyrosinase [1] greater than 100 µM.

`COc1ccc2c(c1C)O/C(=C\c1ccc(O)cc1O)C2=O` gave a concentration for half-maximal inhibition (IC50) at Tyrosinase [1] greater than 100 µM.

One may read the Ki as a measure of affinity in units of concentration, obtained from inhibition or displacement. A high value points to a looser hold on the target. Turning to `O=C1/C(=C/c2ccc(=O)n(O)c2)Oc2cc(O)ccc21`, 15 µM corresponded to half-maximal inhibition on Tyrosinase [1] (IC50). Besides, on Mushroom tyrosinase, the Ki was 1.27 µM.

In turn, `Cc1c(C(=O)c2ccc(O)cc2O)oc2c(O)cccc12` yielded an IC50 against Tyrosinase [1] greater than 100 µM.

By CC50 is commonly meant the concentration at which the toxic effect on the cells reaches its halfway point. Low readings indicate greater toxicity to the cells, high ones lower toxicity to the cells. As for `O=C1/C(=C/c2ccc(O)cc2O)Cc2c(O)cccc21`, the half-maximal inhibitory concentration (IC50) on Tyrosinase [1] worked out at 1.6 µM; in the data set on MNT-1, 29 µM. For the same molecule, affinity on Tyrosinase [2] was put at a Ki of 0.25 µM. Half-maximal cytotoxicity in “in vitro” (CC50) was put at 91 µM.

`O=C1/C(=C/c2ccc(O)cc2O)Sc2c(O)cccc21`: at Tyrosinase [1], the half-maximal inhibitory concentration (IC50) was found to be 48 µM.

As to `CN(C)c1ccc2c(c1)O/C(=C\c1ccc(O)cc1O)C2=O`, the IC50 against Tyrosinase [1] was greater than 100 µM.

As to `COc1cc(OC)c2c(c1)O/C(=C\c1ccc(O)cc1O)C2=O`, the IC50 on Tyrosinase [1] was greater than 100 µM.

For `O=C1/C(=C/c2ccc(O)cc2O)Oc2cccc(O)c21`, the IC50 against Tyrosinase [1] worked out at 25 µM.

The molecule `O=C1/C(=C/c2ccc(O)cc2O)Sc2ccccc21` registered an IC50 at Tyrosinase [1] of 5.9 µM.

Turning to `Cc1c(O)ccc2c1O/C(=C\c1ccc(O)cc1O)C2=O`, it took 80 µM to reach half-maximal inhibition against Tyrosinase [1] (IC50).

Consider `Oc1ccc(Cc2cc3cccc(O)c3o2)c(O)c1`, for which the IC50 on Tyrosinase [1] is greater than 100 µM.

Regarding `O=C1/C(=C/c2ccc(O)cc2O)Oc2c1ccc(O)c2O`, on Tyrosinase [1], 11.8 µM corresponded to half-maximal inhibition (IC50).

Consider `O=C1/C(=C/c2ccc(O)cc2O)Oc2ccccc21`, for which the half-maximal inhibitory concentration (IC50) on Tyrosinase [1] stood at 18 µM.

Molecule `O=C1/C(=C/c2ccc(O)cc2O)Oc2cc(O)cc(O)c21` yielded a 50% inhibitory concentration (IC50) against Tyrosinase [1] of 7.7 µM.

`CCCCOc1ccc2c(c1)O/C(=C\c1ccc(O)cc1O)C2=O` came in with a half-inhibitory concentration (IC50) on Tyrosinase [1] greater than 100 µM.

With `Oc1cccc(O)c1` [RESORCINOL], the IC50 against Tyrosinase [3] was greater than 3000 µM.

At Tyrosinase [1], `COc1ccc2c(c1)O/C(=C\c1ccc(O)cc1O)C2=O` yielded a 50% inhibitory concentration (IC50) of 6.9 µM. That is a single-digit micromolar value.

In the case of `O=c1c2ccccc2[nH]n1Cc1ccc(O)cc1O`, the IC50 against Tyrosinase [1] was greater than 100 µM.

Take `O=C1/C(=C/c2ccc(O)cc2O)Oc2cc(F)cc(F)c21`: the IC50 against Tyrosinase [1] worked out at 88 µM.

On Tyrosinase [1], `COc1ccc2c(c1OC)O/C(=C\c1ccc(O)cc1O)C2=O` gave a half-maximal inhibitory concentration (IC50) greater than 100 µM.

In turn, `O=C1/C(=C/c2ccc(O)cc2O)Nc2ccccc21` returned an IC50 at Tyrosinase [1] of 12.7 µM. That is a double-digit micromolar value.

On to `COc1cccc2c1O/C(=C\c1ccc(O)cc1O)C2=O`, for which the midpoint of inhibition against Tyrosinase [1], the IC50, lay at 80 µM.

For `O=C1/C(=C/c2ccc(O)cc2O)Nc2cc(O)ccc21`, the IC50 against Tyrosinase [1] amounted to 2.3 µM.

With `CC1/C(=C\c2ccc(O)cc2O)C(=O)c2ccccc21` (centres undefined), the half-inhibitory concentration (IC50) on Tyrosinase [1] was found to be 8.2 µM.

On Tyrosinase [1], `O=C1/C(=C/c2ccc(O)cc2O)Oc2c1ccc(O)c2I` registered an IC50 of 32 µM.

At Tyrosinase [1], `O=C1/C(=C/c2c(O)cc(O)cc2O)Oc2cc(O)ccc21` registered a half-inhibitory concentration (IC50) of 15 µM. Compared with the last molecule, the IC50 is about 2.1-fold lower.

In turn, `CN(C)c1cc(O)c2c(c1)O/C(=C\c1ccc(O)cc1O)C2=O` showed an IC50 on Tyrosinase [1] of 18.4 µM.

`O=C1/C(=C/c2ccc(O)cc2O)Sc2cc(O)ccc21` displayed a 50% inhibitory concentration (IC50) against Tyrosinase [1] of 5.8 µM.

At Tyrosinase [1], `O=C1C(=Cc2ccc(O)cc2O)C(=O)c2ccccc21` displayed a half-maximal inhibitory concentration (IC50) greater than 100 µM.

Molecule `O=C1c2ccccc2C(=O)N1Cc1ccc(O)cc1O` came in with a concentration for half-maximal inhibition (IC50) against Tyrosinase [1] greater than 100 µM.

Molecule `O=C1/C(=C/c2ccc(O)cc2O)Oc2cc(Cl)ccc21` came in with an IC50 on Tyrosinase [1] greater than 100 µM.

Molecule `O=c1cc(-c2ccc(O)cc2O)oc2ccccc12` returned an IC50 against Tyrosinase [1] greater than 100 µM.

For the molecule `O=C1/C(=C/c2ccc(O)cc2O)Oc2c(O)cccc21`, the IC50 against Tyrosinase [1] amounted to 1.57 µM; in the data set with MNT-1 it was 32 µM. In addition, the inhibitory constant (Ki) on Tyrosinase [2] was 0.55 µM. Further, it took 108 µM to reach half-maximal cytotoxicity in the data set “in vitro” (CC50).

Turning to `O=C1/C(=C/c2ccc(O)cc2O)Oc2cc(O)ccc21`, the midpoint of inhibition against Tyrosinase [1], the IC50, lay at 6.4 µM.

Consider `O=C1/C(=C/c2ccc(O)cc2O)Cc2cc(O)ccc21`, for which the IC50 against Tyrosinase [1] was found to be 3.4 µM.

As for `O=C(/C=C/c1ccc(O)cc1O)c1ccccc1`, at Tyrosinase [1], inhibition was half-maximal at 60 µM (IC50).

As for `Nc1c(C(=O)c2ccc(O)cc2O)oc2c(O)cccc12`, the half-maximal inhibitory concentration (IC50) on Tyrosinase [1] was greater than 100 µM.

`O=C1/C(=C/c2ccc(O)cc2O)Oc2ccc(O)cc21`: the IC50 against Tyrosinase [1] worked out at 19 µM.

With `CCCCc1ccc(O)cc1O` [RUCINOL], the IC50 against Tyrosinase [1] was determined as 8.3 µM.

B1: Tyrosinase (Homo sapiens), P14679 (protein)
chain: MLLAVLYCLLWSFQTSAGHFPRACVSSKNLMEKECCPPWSGDRSPCGQLSGRGSCQNILLSNAPLGPQFPFTGVDDRESWPSVFYNRTCQCSGNFMGFNCGNCKFGFWGPNCTERRLLVRRNIFDLSAPEKDKFFAYLTLAKHTISSDYVIPIGTYGQMKNGSTPMFNDINIYDLFVWMHYYVSMDALLGGSEIWRDIDFAHEAPAFLPWHRLFLLRWEQEIQKLTGDENFTIPYWDWRDAEKCDICTDEYMGGQHPTNPNLLSPASFFSSWQIVCSRLEEYNSHQSLCNGTPEGPLRRNPGNHDKSRTPRLPSSADVEFCLSLTQYESGSMDKAANFSFRNTLEGFASPLTGIADASQSSMHNALHIYMNGTMSQVQGSANDPIFLLHHAFVDSIFEQWLRRHRPLQEVYPEANAPIGHNRESYMVPFIPLYRNGDFFISSKDLGYDYSYLQDSDPDSFQDYIKSYLEQASRIWSWLLGAAMVGAVLTALLAGLVSLLCRHKRKQLPEEKQPLLMEKEDYHSLYQSHL
One may read the Km as the substrate concentration at which the rate is half of its maximum. For orientation: Vmax means the rate approached at saturating substrate. In general, kcat refers to the number of substrate molecules converted per active site and unit of time at saturation. In the case of B1, the Km in [4] is 161 µM; in [5] it was 143 µM. Moreover, the results for the Vmax in data set [6] and in [7] were 5.18 µmol/min/mg and 4.86 µmol/min/mg, respectively. Further, the kcat in [8] was 5.78 s⁻¹; in data set [9] it was 5.41 s⁻¹.

The record behind these values is ChEMBL document CHEMBL5352459, “Resorcinol-based hemiindigoid derivatives as human tyrosinase inhibitors and melanogenesis suppressors in human melanoma cells” (Eur J Med Chem, 2023).
